Source: PubChem BioAssay (NCI)
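Five concentrations, 48 hours, 96-well plates. GI50 is the concentration that inhibits growth by half. TGI marks complete inhibition of growth.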

How the values were obtained:
Assay in all cases: NCI tumour cell line growth inhibition, 48 h
[1] = system: RXF 393 renal
[2] = system: A549 NSCLC
[3] = system: HOP-92 NSCLC
[4] = system: CAKI-1 renal
[5] = system: TK-10 renal
[6] = system: HL-60(TB) leukemia
[7] = system: SR leukemia
[8] = system: SF-295 CNS
[9] = system: LOX IMVI melanoma
[10] = system: HCT-15 colon
[11] = system: SF-539 CNS
[12] = system: HT29 colon
[13] = system: M14 melanoma
[14] = system: MDA-MB-231 breast
[15] = system: SW-620 colon
[16] = system: HCT-116 colon
[17] = system: KM12 colon
[18] = system: NCI-H226 lung
[19] = system: DU-145 prostate
[20] = system: OVCAR-8 ovarian
[21] = system: IGROV1 ovarian
[22] = system: MOLT-4 leukemia
[23] = system: BT-549 breast
[24] = system: T-47D breast
[25] = system: SK-MEL-28 melanoma
[26] = system: HOP-62 NSCLC
[27] = system: OVCAR-3 ovarian
[28] = system: SK-OV-3 ovarian
[29] = system: UACC-257 melanoma
[30] = system: NCI-H460 lung
[31] = system: ACHN renal
[32] = system: UO-31 renal
[33] = system: SK-MEL-5 melanoma
[34] = system: SNB-19 CNS
[35] = system: CCRF-CEM leukemia
[36] = system: K-562 leukemia
[37] = system: PC-3 prostate
[38] = system: UACC-62 melanoma
[39] = system: MCF7 breast
[40] = system: 786-0 renal
[41] = system: MDA-MB-435
[42] = system: COLO 205 colon
[43] = system: SK-MEL-2 melanoma
[44] = system: HCC-2998 colon
[45] = system: SN12C renal
[46] = system: U251 CNS
[47] = system: OVCAR-4 ovarian
[48] = system: HS 578T breast
[49] = system: SF-268 CNS
[50] = system: EKVX NSCLC
[51] = system: OVCAR-5 ovarian
[52] = system: A498 renal
[53] = system: NCI-H23 lung
[54] = system: NCI/ADR-RES ovarian
[55] = system: NCI-H522 lung

## COc1cc(/C=C2\CC3C4CC=C5CC(OC(C)=O)CC[C@]5(C)C4CC[C@]3(C)C2=O)ccc1OCCN1CCCC1 (some centres not stated)
[1]
  GI50: 3.01 µM
  TGI: 11.6 µM
[2]
  GI50: 7.98 µM
  TGI: > 48.6 µM
[3]
  GI50: 13.5 µM
  TGI: 28.6 µM
[4]
  GI50: 13.1 µM
  TGI: 27 µM
[5]
  GI50: 7.25 µM
  TGI: 19.6 µM
[6]
  GI50: 2780 nM
  TGI: 6.89 µM
[7]
  GI50: 708 nM
  TGI: 2870 nM
[8]
  GI50: 4.8 µM
  TGI: 11.8 µM
[9]
  GI50: 248 nM
  TGI: 2550 nM
[10]
  GI50: 1910 nM
  TGI: 5.3 µM
[11]
  GI50: 3.63 µM
  TGI: 9.82 µM
[12]
  GI50: 646 nM
[13]
  GI50: 1420 nM
  TGI: 2900 nM
[14]
  GI50: 3.39 µM
  TGI: 11.2 µM
[15]
  GI50: 4.89 µM
  TGI: 22.9 µM
[16]
  GI50: 1520 nM
  TGI: 3.14 µM
[17]
  GI50: 3.89 µM
  TGI: 15 µM
[18]
  GI50: 14.1 µM
  TGI: 30.9 µM
[19]
  GI50: 13.6 µM
  TGI: 26.6 µM
[20]
  GI50: 13.8 µM
  TGI: 47 µM
[21]
  GI50: 5.81 µM
  TGI: > 44.7 µM
[22]
  GI50: 1870 nM
  TGI: 8.5 µM
[23]
  GI50: 14.7 µM
  TGI: 38.3 µM
[24]
  GI50: 5.4 µM
  TGI: > 91 µM
[25]
  GI50: 2540 nM
[26]
  GI50: 9.52 µM
  TGI: 23 µM
[27]
  GI50: 3000 nM
  TGI: 10.5 µM
[28]
  GI50: 23.7 µM
  TGI: > 63.9 µM
[29]
  GI50: 2090 nM
  TGI: 4.2 µM
[30]
  GI50: 2540 nM
[31]
  GI50: 5.52 µM
  TGI: 17.9 µM
[32]
  GI50: 8.67 µM
  TGI: 23.5 µM
[33]
  GI50: 1380 nM
  TGI: 2860 nM
[34]
  GI50: 23.6 µM
  TGI: > 66.9 µM
[35]
  GI50: 268 nM
  TGI: 1780 nM
[36]
  GI50: 1080 nM
  TGI: 7.41 µM
[37]
  GI50: 8.47 µM
  TGI: 23.2 µM
[38]
  GI50: 1930 nM
  TGI: 3.85 µM
[39]
  GI50: 2690 nM
  TGI: > 22.4 µM
[40]
  GI50: 4.51 µM
  TGI: 14 µM
[41]
  GI50: 3.38 µM
  TGI: 13.1 µM
[42]
  GI50: 4.83 µM
  TGI: > 63.8 µM
[43]
  GI50: 6.99 µM
  TGI: 23.7 µM
[44]
  GI50: 12.5 µM
  TGI: 25 µM
[45]
  GI50: 13.7 µM
  TGI: 26.6 µM
[46]
  GI50: 4.2 µM
  TGI: 14.7 µM
[47]
  GI50: 2380 nM
  TGI: > 19.6 µM
[48]
  GI50: 20 µM
  TGI: 42.7 µM
[49]
  GI50: 8.53 µM
  TGI: 26.7 µM
[50]
  GI50: 18 µM
  TGI: 35.4 µM
[51]
  GI50: 13.4 µM
  TGI: 26.4 µM
[52]
  GI50: 23.7 µM
  TGI: 43.5 µM
[53]
  GI50: 14.2 µM
  TGI: 27.7 µM
[54]
  GI50: 12 µM
  TGI: 24.9 µM
[55]
  GI50: 10.5 µM
  TGI: 26.6 µM
